Results: paper PMC12799219, “In vitro and in vivo studies on the activity and selectivity of butoconazole in experimental infection by Trypanosoma cruzi” (Memórias do Instituto Oswaldo Cruz, 2026)

Assay: In vivo pharmacokinetic study, plasma levels by LC-MS/MS
Set-up: species or system BALB/c mice
Conditions: mice, single dose 100 mg/kg i.p.
Protocol: In vivo pharmacokinetic study - Adult male specific-pathogen-free BALB/c mice, provided by the Faculty of Veterinary Sciences, National University of La Plata (FCV-UNLP) were used. Animals were housed in cages with four animals per cage, under a 12 h light/dark cycle and controlled temperature, provided with water and food ad libitum and environmental enrichment. A minimum period of six days was given after transport for physiological acclimatisation before any procedure. Five groups of mice (n = 3 per group) were used, one per sampling time. […] Plasma was obtained immediately after blood collection by centrifugation for 10 min at 4,000 rpm and conserved at -17 °C until quantification. […]
The equipment used was a Waters Alliance 2695 HPLC coupled to a tandem quadrupole mass spectrometer, Premier XE (Waters Corp.), equipped with an electrospray ionisation source operating in positive mode (ESI+). […] The mass spectrometer was configured to operate in multiple reaction monitoring (MRM) mode, employing two mass transitions for the compound, one for quantification (411.0 > 164.9) and the other for confirmation (413.2 > 164.9).
Unbound drug concentrations in plasma were estimated by multiplying the analytically determined total drug concentrations by the unbound fraction predicted by Deep-PK.[27]

Clc1ccc(CCC(Cn2ccnc2)Sc2c(Cl)cccc2Cl)cc1 (centres unmarked) [BTZ, butoconazole]
mean peak total plasma concentration: 25.9 µM
time of mean peak plasma concentration: 2 h
